Reference: patent US20110159086A1, “PHARMACEUTICAL FORMULATION COMPRISING A CB1-RECEPTOR COMPOUND IN A SOLID SOLUTION AND/OR SOLID DISPERSION” (LABORATORIOS DEL DR. ESTEVE, S.A., priority 2008, published 2011)
Where two headings read alike, the source gives them in different places.

Legend:
[1] = Dissolution profiles of the hot melt extrusion formulations, Non-Sink conditions (HCL 0.1N, pH 1.2); assay type: physicochemical; details: for % dissolved (pH 1.2): Non-Sink, HCL 0.1N pH 1.2, paddles 50 rpm, 1000 ml, 37° C.
Description: (§1) A mixture has been prepared during two minutes in proportion as described in Table 4. The “Hot Melt Extrusion” formulations, in percentage, have been developed for each series.
(§2) The mixture has been loaded in an extruder and the temperature has been adjusted according to the type of polymer used, as described below:
(§3) The obtained extrudates have been cooled at room temperature and milled. The particle size has then been homogenized. A powder has been obtained which has then been dosified in capsules for administration
(§4) The dissolution apparatus used was HANSON […]. SR8 PLUS, the UV spectrophotometer HEWLET PACKARD 8452.
In the NON-SINK conditions, the active ingredient concentration in the dissolution medium is above the saturation concentration, i.e. the active ingredient is in a medium in which it is not soluble.
The conditions used for the Non-Sink assays were:
Dissolution medium: HCL 0.1N, pH 1.2
(§5) Vessel temperature 37° C.

[2] = Pharmacokinetic study in rats, plasma levels of the (4S,5S) cis enantiomer by chiral LC-MS/MS; assay type: in vivo, male Wistar Hannover rats; details: for Vd: male, rat
[3] = Dissolution profiles of the hot melt extrusion formulations, Sink conditions (HCL 0.1N, pH 1.2 + Sodium Lauryl Sulfate 0.1%); assay type: physicochemical; details: for % dissolved (pH 1.2 SLS 0.1%): Sink, HCL 0.1N pH 1.2 + SLS 0.1%, paddles 50 rpm, 1000 ml, 37° C.
Description: as §1, §2, §3, §4
In the SINK conditions, the active ingredient concentration in the dissolution medium is below 20% of the saturation concentration, i.e. the active ingredient will dissolve easily in the medium.
The conditions used for the Sink assays were:
Dissolution medium: HCL 0.1N, pH 1.2+Sodium Lauryl Sulfate 0.1%
as §5

[4] = Solubility increase (Δ) = FD60 min formulation/FD % 60 min (drug), FD = dissolved drug fraction
[5] = Wistar Hannover (HSDHan:WIST), po, 20 mg/kg, male rat, single dose, fasting, analyte (4S,5S) cis enantiomer in plasma, suspension = active alone in 5% arabic gum, HME = example 15
[6] = Wistar Hannover, plasma, iv, 1 mg/kg, male rat, solution

## C[C@@H]1C(C(=O)NN2[C@H](C)CCC[C@@H]2C)=NN(c2ccc(Cl)cc2Cl)[C@@H]1c1ccc(Cl)cc1 [(4S,5S) cis enantiomer, (4S,5S)-5-(4-chlorophenyl)-1-(2,4-dichlorophenyl)-N-(cis-2,6-dimethylpiperidin-1-yl)-4-methyl-4,5-dihydro-1H-pyrazole-3-carboxamide]
[1]; [4]
  Increase (Δ) 60 min. Non Sink Conditions: 0.00
[1]; time 0 min
  % dissolved (pH 1.2): 0.0%
[1]; time 5 min
  % dissolved (pH 1.2): 2.2%
[1]; time 10 min
  % dissolved (pH 1.2): 1.9%
[1]; time 15 min
  % dissolved (pH 1.2): 1.4%
[1]; time 20 min
  % dissolved (pH 1.2): 1.5%
[1]; time 30 min
  % dissolved (pH 1.2): 1.6%
[1]; time 45 min
  % dissolved (pH 1.2): 2.7%
[1]; time 60 min
  % dissolved (pH 1.2): 2.9%
[2]; [5]
  AUC(0-t): 374 ng·h/mL
  Tmax: 6 h
[2]; Wistar Hannover (HSDHan:WIST), po, 20 mg/kg, male rat, single dose, fasting, analyte (4S,5S) cis enantiomer in plasma, suspension = active alone in 5% arabic gum, HME = example 15, read-out: Cmax
  Cmax: 103 ng/mL
[2]; [6]
  AUC(0-inf): 559 ng·h/mL
  AUC(0-t): 534 ng·h/mL
  clearance: 30 mL/min/kg
  half-life: 8.2 h
[2]; Wistar Hannover, plasma, iv, 1 mg/kg, male rat, solution, read-out: Cmax (C0 for intravenous)
  Cmax: 828 ng/mL
[2]; Wistar Hannover, plasma, iv, 1 mg/kg, iv, 1 mg/kg, solution, read-out: Vd
  Vd: 21.1 L/kg
[2]; Wistar Hannover, plasma, iv, 1 mg/kg, iv, 1 mg/kg, solution, read-out: Vss
  Vd: 8.7 L/kg
[2]; po, 20 mg/kg, male rat, versus iv 1 mg/kg solution, suspension = active alone in 5% arabic gum, HME = example 15
  F (Absolute bioavailability estimated from AUC0-t): 3.5%
[3]; [4]
  Increase (Δ) 60 min. Sink Conditions: 0.00
[3]; time 0 min
  % dissolved (pH 1.2 SLS 0.1%): 0.0%
[3]; time 5 min
  % dissolved (pH 1.2 SLS 0.1%): 4.1%
[3]; time 10 min
  % dissolved (pH 1.2 SLS 0.1%): 6.5%
[3]; time 15 min
  % dissolved (pH 1.2 SLS 0.1%): 11.8%
[3]; time 20 min
  % dissolved (pH 1.2 SLS 0.1%): 16.0%
[3]; time 30 min
  % dissolved (pH 1.2 SLS 0.1%): 24.3%
[3]; time 45 min
  % dissolved (pH 1.2 SLS 0.1%): 37.8%
[3]; time 60 min
  % dissolved (pH 1.2 SLS 0.1%): 53.0%
